Results published in PubChem BioAssay (NCI).
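Values below derive from 48-hour exposures of cells grown in 96-well plates, with endpoints linearly interpolated between the two concentrations bracketing the appropriate inhibition level. GI50 is the concentration that inhibits growth by half. Definition used: TGI = concentration required for complete inhibition of growth.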

Columns and labels:
Assay in all cases: inhibition of tumour cell growth, NCI panel, 48 h
786-0 renal = test system: 786-0 renal
A498 renal = test system: A498 renal
A549 NSCLC = test system: A549 NSCLC
ACHN renal = test system: ACHN renal
BT-549 breast = test system: BT-549 breast
CAKI-1 renal = test system: CAKI-1 renal
CCRF-CEM leukemia = test system: CCRF-CEM leukemia
COLO 205 colon = test system: COLO 205 colon
DU-145 prostate = test system: DU-145 prostate
EKVX NSCLC = test system: EKVX NSCLC
HCC-2998 colon = test system: HCC-2998 colon
HCT-116 colon = test system: HCT-116 colon
HCT-15 colon = test system: HCT-15 colon
HL-60(TB) leukemia = test system: HL-60(TB) leukemia
HOP-62 NSCLC = test system: HOP-62 NSCLC
HOP-92 NSCLC = test system: HOP-92 NSCLC
HS 578T breast = test system: HS 578T breast
HT29 colon = test system: HT29 colon
IGROV1 ovarian = test system: IGROV1 ovarian
K-562 leukemia = test system: K-562 leukemia
KM12 colon = test system: KM12 colon
LOX IMVI melanoma = test system: LOX IMVI melanoma
M14 melanoma = test system: M14 melanoma
MALME-3M melanoma = test system: MALME-3M melanoma
MCF7 breast = test system: MCF7 breast
MDA-MB-231 breast = test system: MDA-MB-231 breast
MDA-MB-435 = test system: MDA-MB-435
MOLT-4 leukemia = test system: MOLT-4 leukemia
NCI-H226 lung = test system: NCI-H226 lung

`O=C(Nc1ccccc1Cl)c1cnc2ccc(C3CCNCC3)cn12` was tested, and the GI50 (786-0 renal) was 3.18 µM, the TGI (786-0 renal) was > 100 µM and the GI50 (A498 renal) was 1.49 µM. For the same compound, the TGI (A498 renal) was > 45.5 µM, the GI50 (A549 NSCLC) was 11.5 µM and the TGI (A549 NSCLC) was > 100 µM. For the same compound, the GI50 (ACHN renal) was 1.02 µM, the TGI (ACHN renal) was > 46.5 µM and the GI50 (BT-549 breast) was > 73.7 µM. For the same compound, the TGI (BT-549 breast) was > 100 µM, the GI50 (CAKI-1 renal) was 1.51 µM and the TGI (CAKI-1 renal) was 12 µM. For the same compound, the GI50 (CCRF-CEM leukemia) was > 100 µM, the TGI (CCRF-CEM leukemia) was > 100 µM and the GI50 (COLO 205 colon) was 2.85 µM. For the same compound, the TGI (COLO 205 colon) was 25 µM, the GI50 (DU-145 prostate) was 6.62 µM and the TGI (DU-145 prostate) was > 100 µM. The GI50 (EKVX NSCLC) was 11.7 µM, the TGI (EKVX NSCLC) was > 100 µM and the GI50 (HCC-2998 colon) was > 100 µM. For the same compound, the TGI (HCC-2998 colon) was > 100 µM, the GI50 (HCT-116 colon) was 13.4 µM and the TGI (HCT-116 colon) was > 100 µM. The GI50 (HCT-15 colon) was 11 µM, the TGI (HCT-15 colon) was > 100 µM and the GI50 (HL-60(TB) leukemia) was > 67.9 µM. The TGI (HL-60(TB) leukemia) was > 100 µM, the GI50 (HOP-62 NSCLC) was 16.8 µM and the TGI (HOP-62 NSCLC) was > 100 µM. For the same compound, the GI50 (HOP-92 NSCLC) was 0.703 µM, the TGI (HOP-92 NSCLC) was 7.28 µM and the GI50 (HS 578T breast) was 0.292 µM. The TGI (HS 578T breast) was 2.92 µM, the GI50 (HT29 colon) was 1.77 µM and the TGI (HT29 colon) was 18.6 µM. The GI50 (IGROV1 ovarian) was 0.626 µM, the TGI (IGROV1 ovarian) was 14.6 µM and the GI50 (K-562 leukemia) was 8.23 µM. For the same compound, the TGI (K-562 leukemia) was > 100 µM, the GI50 (KM12 colon) was > 85.4 µM and the TGI (KM12 colon) was > 100 µM. For the same compound, the GI50 (LOX IMVI melanoma) was 2.07 µM, the TGI (LOX IMVI melanoma) was 17 µM and the GI50 (M14 melanoma) was 15.2 µM. The TGI (M14 melanoma) was 33.3 µM, the GI50 (MALME-3M melanoma) was 22.1 µM and the TGI (MALME-3M melanoma) was > 94.5 µM. The GI50 (MCF7 breast) was > 68.9 µM, the TGI (MCF7 breast) was > 100 µM and the GI50 (MDA-MB-231 breast) was 2.48 µM. For the same compound, the TGI (MDA-MB-231 breast) was 59.7 µM, the GI50 (MDA-MB-435) was 32.6 µM and the TGI (MDA-MB-435) was > 100 µM. The GI50 (MOLT-4 leukemia) was 55.9 µM, the TGI (MOLT-4 leukemia) was > 100 µM and the GI50 (NCI-H226 lung) was > 24.4 µM. For the same compound, the TGI (NCI-H226 lung) was > 100 µM.
